Source: PMC4773098, “Inhibition of IKKα by BAY61-3606 Reveals IKKα-Dependent Histone H3 Phosphorylation in Human Cytomegalovirus Infected Cells” (PLoS ONE, 2016)
Counter-ions that a name gives are not always drawn.

Assays:
Type in all cases: biochemical
[1] = biological target: T1, GCK (germinal center kinase, MAP4K2) (Homo sapiens, UniProt Q12851); test: in vitro radiometric kinase assay at […] BAY61-3606 (Fig 3B)
T1 construct: Residues 1–473 glutathione-s-transferase (GST) tagged protein
T1 sequence (Q12851 1-473): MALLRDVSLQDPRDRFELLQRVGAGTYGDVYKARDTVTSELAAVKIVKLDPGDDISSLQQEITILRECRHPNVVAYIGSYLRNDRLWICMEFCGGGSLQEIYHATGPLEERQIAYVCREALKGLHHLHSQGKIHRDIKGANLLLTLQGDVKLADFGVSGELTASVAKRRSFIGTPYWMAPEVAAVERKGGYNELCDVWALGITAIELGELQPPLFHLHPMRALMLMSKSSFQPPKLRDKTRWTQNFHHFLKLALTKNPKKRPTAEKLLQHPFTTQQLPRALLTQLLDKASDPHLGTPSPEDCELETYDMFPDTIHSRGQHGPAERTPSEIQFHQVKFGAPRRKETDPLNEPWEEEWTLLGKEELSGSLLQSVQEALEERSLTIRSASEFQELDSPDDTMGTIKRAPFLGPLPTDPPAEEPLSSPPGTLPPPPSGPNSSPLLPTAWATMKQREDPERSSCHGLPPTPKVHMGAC

SYK = biological target: T2, SYK (Homo sapiens, UniProt P43405); test: as above
T2 construct: Full length His-tagged protein

IKKα = biological target: T3, IKKα (Homo sapiens, UniProt O15111); test: in vitro radiometric kinase assay ([γ-33P-ATP], KinaseProfiler), dose response
T3 construct: gene CHUK; Full length GST-tagged protein
T3 sequence (O15111 1-745): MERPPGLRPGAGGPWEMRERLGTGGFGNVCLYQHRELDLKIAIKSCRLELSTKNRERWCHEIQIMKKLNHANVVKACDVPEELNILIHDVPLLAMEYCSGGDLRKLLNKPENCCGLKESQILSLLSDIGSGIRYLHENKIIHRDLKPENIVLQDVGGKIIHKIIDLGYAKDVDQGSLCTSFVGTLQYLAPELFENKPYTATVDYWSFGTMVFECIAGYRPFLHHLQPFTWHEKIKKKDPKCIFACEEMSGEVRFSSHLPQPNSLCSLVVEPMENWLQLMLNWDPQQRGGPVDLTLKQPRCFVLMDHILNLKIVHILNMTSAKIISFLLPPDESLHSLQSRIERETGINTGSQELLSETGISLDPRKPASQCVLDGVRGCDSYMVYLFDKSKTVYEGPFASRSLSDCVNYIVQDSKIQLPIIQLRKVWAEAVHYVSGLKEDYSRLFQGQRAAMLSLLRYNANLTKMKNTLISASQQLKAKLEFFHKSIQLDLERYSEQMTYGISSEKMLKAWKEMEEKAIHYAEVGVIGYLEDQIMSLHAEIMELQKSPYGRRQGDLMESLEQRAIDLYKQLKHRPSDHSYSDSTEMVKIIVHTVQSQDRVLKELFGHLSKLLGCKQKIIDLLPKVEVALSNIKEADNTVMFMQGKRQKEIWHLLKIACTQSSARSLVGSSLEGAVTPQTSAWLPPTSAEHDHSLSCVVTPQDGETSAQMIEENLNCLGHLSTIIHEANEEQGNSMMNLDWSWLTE

Q: For `COc1ccc(-c2cc3nccn3c(Nc3ncccc3C(N)=O)n2)cc1OC` [BAY61-3606, 2-[7-(3,4-dimethoxyphenyl)-imidazo[1,2-c]pyrimidin-5-ylamino]nicotinamide dihydrochloride], which “in vitro radiometric kinase assay at 10 μM BAY61-3606 (Fig 3B)” value [1] is on record?
A: The value was “We observed that BAY61-3606 is a potent inhibitor of SYK, GCK and IKKα, but not IKKβ or LYN”.

Q: And the “in vitro radiometric kinase assay at 10 μM BAY61-3606 (Fig 3B)” value (SYK)?
A: Its value is “We observed that BAY61-3606 is a potent inhibitor of SYK, GCK and IKKα, but not IKKβ or LYN”.

Q: What about the IC50 (IKKα) of the same compound?
A: Its IC50 is 45 nM.
